One may read the GI50 as the concentration giving 50% growth inhibition. The TGI is the concentration giving total growth inhibition.

Among the test systems are SNB-19 CNS; NCI/ADR-RES ovarian; HOP-92 NSCLC; HCT-15 colon; UACC-257 melanoma; NCI-H460 lung; PC-3 prostate; HOP-62 NSCLC; SK-OV-3 ovarian; K-562 leukemia.
Common to all, as to assay: DTP human tumour cell line panel, 48 h

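Five concentrations, 48 hours, 96-well plates. GI50 marks 50% less growth. The concentration for full growth arrest is given as TGI.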 A value given as a limit tells only on which side of the number the result lay.

As to `CCCCCCCCCCCCCCCCCC(=O)[O][Sn]([CH2]CCC)([CH2]CCC)[CH2]CCC`, the GI50 with SNB-19 CNS is 0.167 µM; in the assay on NCI/ADR-RES ovarian it was 0.177 µM; in the assay on HOP-92 NSCLC it was 0.0908 µM; in the assay on HCT-15 colon it was 0.146 µM; with UACC-257 melanoma, 0.144 µM; with NCI-H460 lung, 0.109 µM. Further, the concentration for 50% growth inhibition (GI50) in the assay with PC-3 prostate was 0.18 µM; in the assay on HOP-62 NSCLC it was 0.158 µM; in the assay with SK-OV-3 ovarian, 0.143 µM; in the assay with K-562 leukemia, 0.142 µM. Moreover, the TGI turned out to be 0.338 µM with SNB-19 CNS; 0.438 µM in the assay with NCI/ADR-RES ovarian; 0.273 µM in the assay with HOP-92 NSCLC; 0.38 µM in the assay on HCT-15 colon; 0.293 µM in the assay on UACC-257 melanoma; 0.251 µM in the assay on NCI-H460 lung. Besides, the TGI in the assay with PC-3 prostate is 0.463 µM; with HOP-62 NSCLC, 0.332 µM; with SK-OV-3 ovarian, 0.288 µM; in the assay on K-562 leukemia it was over 100 µM.

Take `CN(C)c1cc2c(cc1Sc1nc3c(N)nccc3n1CCNCC(C)(C)C)OCO2`: the GI50 in the assay with SNB-19 CNS was 1 µM; with NCI/ADR-RES ovarian it was 0.731 µM; in the assay on HOP-92 NSCLC, 0.334 µM; in the assay with HCT-15 colon, 0.394 µM; in the assay on UACC-257 melanoma it was 0.473 µM; in the assay with NCI-H460 lung it was 0.376 µM. Further, the GI50 with PC-3 prostate was 0.615 µM; in the assay on HOP-62 NSCLC, 2.39 µM; with SK-OV-3 ovarian, 0.394 µM; with K-562 leukemia, 0.319 µM. Moreover, the concentration for total growth inhibition (TGI) was determined as 24.2 µM with SNB-19 CNS; 24.7 µM with NCI/ADR-RES ovarian; 2.49 µM with HOP-92 NSCLC; 14.5 µM in the assay with HCT-15 colon; 11.9 µM in the assay with UACC-257 melanoma; 12.1 µM with NCI-H460 lung. For the same compound, the concentration for total growth inhibition (TGI) in the assay on PC-3 prostate turned out to be 28.8 µM; with HOP-62 NSCLC it was 22.1 µM; with SK-OV-3 ovarian, 15.2 µM; in the assay with K-562 leukemia, 11 µM.

Consider `Cc1cc(N2CCOCC2)nc(N(CCNc2ccnc3cc(Cl)ccc23)Cc2ccco2)n1`, for which the GI50 in the assay with SNB-19 CNS was 6.49 µM; with NCI/ADR-RES ovarian, 4.5 µM; with HOP-92 NSCLC, 2.1 µM; with HCT-15 colon it was 3.6 µM; with UACC-257 melanoma it was 3.41 µM; with NCI-H460 lung, 3.72 µM. The GI50 is 4.38 µM in the assay with PC-3 prostate, 3.62 µM in the assay with HOP-62 NSCLC, 7.01 µM in the assay on SK-OV-3 ovarian and 2.91 µM in the assay with K-562 leukemia. In addition, the TGI came to 48.1 µM in the assay with SNB-19 CNS; 68.8 µM in the assay with NCI/ADR-RES ovarian; 8.19 µM in the assay on HOP-92 NSCLC; 34.9 µM in the assay with HCT-15 colon; 16.5 µM in the assay with UACC-257 melanoma; 23.9 µM in the assay on NCI-H460 lung. In addition, the total growth inhibition concentration (TGI) with PC-3 prostate was 20.6 µM; in the assay on HOP-62 NSCLC, 31.3 µM; in the assay on SK-OV-3 ovarian, 22 µM; in the assay on K-562 leukemia, over 100 µM.

Consider `COc1ccc(C2=C(Br)C(=O)OC2)cc1Cl`, for which the GI50 in the assay with SNB-19 CNS is 10.6 µM; in the assay on NCI/ADR-RES ovarian, 29.4 µM; with HOP-92 NSCLC, 45.2 µM; with HCT-15 colon, 19.4 µM; with UACC-257 melanoma it was 21 µM; in the assay with NCI-H460 lung, 33.2 µM. Further, the GI50 is 33.1 µM with PC-3 prostate, 44.4 µM in the assay with HOP-62 NSCLC and 33.7 µM with K-562 leukemia. Besides, the total growth inhibition concentration (TGI) with SNB-19 CNS was over 100 µM; with NCI/ADR-RES ovarian, over 79.2 µM; with HOP-92 NSCLC, over 100 µM; in the assay on HCT-15 colon, over 55.1 µM; with UACC-257 melanoma, 59.5 µM; with NCI-H460 lung, over 100 µM. For the same compound, the concentration for total growth inhibition (TGI) in the assay with PC-3 prostate was over 91.5 µM; with HOP-62 NSCLC, over 100 µM; in the assay on SK-OV-3 ovarian, over 66.9 µM; in the assay with K-562 leukemia it was over 86.2 µM.

With `Oc1c(Cl)cc(C(c2cc(Cl)c(O)c(Cl)c2)C(c2cc(Cl)c(O)c(Cl)c2)c2cc(Cl)c(O)c(Cl)c2)cc1Cl`, the GI50 in the assay on SNB-19 CNS is 3.51 µM; in the assay on NCI/ADR-RES ovarian, 10.7 µM; with HOP-92 NSCLC it was 3.44 µM; in the assay with HCT-15 colon, 2.57 µM; in the assay on UACC-257 melanoma, 7.75 µM; in the assay with NCI-H460 lung it was 2.59 µM. The GI50 in the assay on HOP-62 NSCLC is 6.28 µM; with SK-OV-3 ovarian, 11.3 µM; in the assay on K-562 leukemia, 13.1 µM. Also, the TGI turned out to be 17.3 µM with SNB-19 CNS; 38 µM with NCI/ADR-RES ovarian; 13.6 µM in the assay with HOP-92 NSCLC; 13.7 µM in the assay on HCT-15 colon; 23.9 µM in the assay on UACC-257 melanoma; 18.7 µM with NCI-H460 lung. Also, the total growth inhibition concentration (TGI) in the assay on PC-3 prostate is 13.8 µM; with HOP-62 NSCLC, 19.2 µM; with SK-OV-3 ovarian, 23.4 µM; with K-562 leukemia it was 38 µM.

In the case of `O=C1C(=O)c2ccccc2C=C1[N+](=O)[O-]`, the total growth inhibition concentration (TGI) was over 100 µM with SNB-19 CNS; 76.4 µM in the assay on NCI/ADR-RES ovarian; over 100 µM in the assay with HOP-92 NSCLC; over 100 µM in the assay with HCT-15 colon; 58.9 µM with UACC-257 melanoma; over 100 µM in the assay with NCI-H460 lung. Besides, the TGI in the assay on PC-3 prostate, in the assay with HOP-62 NSCLC, in the assay with SK-OV-3 ovarian and in the assay on K-562 leukemia was over 100 µM throughout.

Consider `Oc1ccc(Cl)cc1Cc1cc(Cl)cc(Cc2cc(Cl)ccc2O)c1O`, for which the total growth inhibition concentration (TGI) in the assay on SNB-19 CNS is 14.6 µM; in the assay on NCI/ADR-RES ovarian it was 6.82 µM; in the assay on HOP-92 NSCLC, 5.94 µM; in the assay on HCT-15 colon, 12.2 µM; in the assay on UACC-257 melanoma it was 5.18 µM; in the assay with NCI-H460 lung, 4.96 µM. In addition, the TGI in the assay on PC-3 prostate was 7.7 µM; in the assay with HOP-62 NSCLC, 10.9 µM; in the assay with SK-OV-3 ovarian it was 8.5 µM; in the assay with K-562 leukemia, 10.3 µM.

With `NC(=O)c1ncn(C2OC(CO)C(O)C2O)n1` (stereo unspecified), the GI50 was 54.6 µM in the assay on NCI/ADR-RES ovarian; over 100 µM in the assay with HOP-92 NSCLC; 38.4 µM in the assay on HCT-15 colon; over 100 µM with UACC-257 melanoma; 64.2 µM with NCI-H460 lung; 59.6 µM with PC-3 prostate. The GI50 in the assay with HOP-62 NSCLC was over 100 µM; in the assay with SK-OV-3 ovarian it was over 100 µM; in the assay with K-562 leukemia, 51.9 µM. The total growth inhibition concentration (TGI) with NCI/ADR-RES ovarian, in the assay on HOP-92 NSCLC, in the assay on HCT-15 colon, in the assay with UACC-257 melanoma, with NCI-H460 lung and in the assay with PC-3 prostate was over 100 µM throughout. For the same compound, the TGI with HOP-62 NSCLC, in the assay with SK-OV-3 ovarian and with K-562 leukemia was over 100 µM throughout.

The record behind these values is PubChem BioAssay (NCI).
